Source: the NIST ThermoML archive (doi:10.1021/je800271e)

How the values were obtained:
[1] = xn = mol fraction of the nth substance listed; conditions: for viscosity: Liquid
[2] = for viscosity: Liquid

O [water] + OCCO
[1], x2 = 0
Conditions | surface tension liquid-gas [mN/m] | viscosity [mPa·s]
308.15 K | 71.02 | 0.721
313.15 K | 69.69 | 0.6532
318.15 K | 67.68 | 0.59
323.15 K | 66.12 | 0.55

OCCO [1,2-ethanediol] + O
[1]
Conditions | surface tension liquid-gas, 308.15 K [mN/m] | surface tension liquid-gas, 313.15 K [mN/m] | surface tension liquid-gas, 318.15 K [mN/m] | surface tension liquid-gas, 323.15 K [mN/m] | viscosity, 308.15 K [mPa·s] | viscosity, 313.15 K [mPa·s] | viscosity, 318.15 K [mPa·s] | viscosity, 323.15 K [mPa·s]
x1 = 0.0145 | 69.73 | 66.55 | 65.92 | 63.24 | 0.7543 | 0.7037 | 0.6336 | 0.5878
x1 = 0.0312 | 67.83 | 65.58 | 63.92 | 60.58 | 0.8381 | 0.764 | 0.6785 | 0.6321
x1 = 0.0484 | 66.13 | 64.09 | 62.24 | 59.62 | 0.9241 | 0.8372 | 0.7424 | 0.6876
x1 = 0.0686 | 64.57 | 62.51 | 60.57 | 57.96 | 1.021 | 0.9256 | 0.7995 | 0.7433
x1 = 0.0883 | 63.27 | 61.32 | 59.21 | 56.77 | 1.133 | 1.017 | 0.8755 | 0.8133
x1 = 0.1107 | 62.14 | 60.32 | 58.41 | 55.75 | 1.266 | 1.127 | 0.9589 | 0.8853
x1 = 0.1621 | 60.02 | 58.1 | 56.25 | 54.15 | 1.574 | 1.405 | 1.184 | 1.082
x1 = 0.2247 | 57.51 | 55.92 | 54.36 | 52.15 | 2.036 | 1.772 | 1.48 | 1.339
x1 = 0.3032 | 56.03 | 54.45 | 52.66 | 50.52 | 2.662 | 2.298 | 1.888 | 1.679
x1 = 0.4035 | 54.03 | 52.41 | 50.65 | 49.12 | 3.512 | 3.017 | 2.468 | 2.179
x1 = 0.5366 | 52.47 | 50.7 | 49.34 | 47.88 | 4.7 | 4.054 | 3.283 | 2.874
x1 = 1 | 50.11 | 48.73 | 47.25 | 46.41 | 9.212 | 7.961 | 6.293 | 5.447

OCCO [1,2-ethanediol]
[2]
Conditions | surface tension liquid-gas [mN/m] | viscosity [mPa·s]
308.15 K | 50.11 | 9.212
313.15 K | 48.73 | 7.961
318.15 K | 47.25 | 6.293
323.15 K | 46.41 | 5.447
